Data as given in patent US20100298141A1, “SUBSTITUTED PYRIDINE N-OXIDE HERBICIDES” (E. I. DU PONT DE NEMOURS AND COMPANY, priority 2007, published 2010).

Columns and labels:
Experiment in all cases: Test A pre-/postemergence greenhouse test
barnyardgrass = assay type: in vivo, Echinochloa crus-galli; conditions: for Plant response rating, Barnyardgrass: 0 to 100 scale where 0 is no effect and 100 is complete control; for Barnyardgrass plant response rating: 0 to 100 scale
Excerpt: (§1) Seeds of barnyardgrass (Echinochloa crus-galli), crabgrass (Digitaria sanguinalis), giant foxtail (Setaria faberi), morningglory (Ipomoea spp.), redroot pigweed (Amaranthus retroflexus), velvetleaf (Abutilon theophrasti), wheat (Triticum aestivum), and corn (Zea mays) were planted into a blend of loam soil and sand and treated preemergence with a directed soil spray using test compounds formulated in a non-phytotoxic solvent mixture which included a surfactant. At the same time these species were also treated with postemergence applications of test compounds formulated in the same manner. Plants ranged in height from two to ten cm and were in the one- to two-leaf stage for the postemergence treatment. Treated plants and untreated controls were maintained in a greenhouse for approximately ten days, after which time all treated plants were compared to untreated controls and visually evaluated for injury. […] A dash (-) response means no test results.

crabgrass = assay type: in vivo, Digitaria sanguinalis; conditions: for Plant response rating, Crabgrass, Large: 0 to 100 scale where 0 is no effect and 100 is complete control; for Crabgrass, Large plant response rating: 0 to 100 scale
Excerpt: as §1

giant foxtail = assay type: in vivo, Setaria faberi; conditions: for Plant response rating, Foxtail, Giant: 0 to 100 scale where 0 is no effect and 100 is complete control; for Foxtail, Giant plant response rating: 0 to 100 scale
Excerpt: as §1

morningglory = assay type: in vivo, Ipomoea spp.; conditions: for Plant response rating, Morningglory: 0 to 100 scale where 0 is no effect and 100 is complete control; for Morningglory plant response rating: 0 to 100 scale
Excerpt: as §1

redroot pigweed = assay type: in vivo, Amaranthus retroflexus; conditions: for Plant response rating, Pigweed: 0 to 100 scale where 0 is no effect and 100 is complete control; for Pigweed plant response rating: 0 to 100 scale
Excerpt: as §1

velvetleaf = assay type: in vivo, Abutilon theophrasti; conditions: for Plant response rating, Velvetleaf: 0 to 100 scale where 0 is no effect and 100 is complete control; for Velvetleaf plant response rating: 0 to 100 scale
Excerpt: as §1

wheat = assay type: in vivo, Triticum aestivum; conditions: for Plant response rating, Wheat: 0 to 100 scale where 0 is no effect and 100 is complete control; for Wheat plant response rating: 0 to 100 scale
Excerpt: as §1

corn = assay type: in vivo, Zea mays; conditions: for Plant response rating, Corn: 0 to 100 scale where 0 is no effect and 100 is complete control; for Corn plant response rating: 0 to 100 scale
Excerpt: as §1

[1] = Postemergence, 500 g ai/ha, 0 is no effect, 100 is complete control
[2] = Preemergence, 125 g ai/ha, 0 no effect, 100 complete control
[3] = Preemergence, 500 g ai/ha, 0 no effect, 100 complete control

Structure (SMILES)	Plant response rating, Barnyardgrass (barnyardgrass; Postemergence, 125 g ai/ha)	Barnyardgrass plant response rating (barnyardgrass; [1])	Barnyardgrass plant response rating (barnyardgrass; [2])	Barnyardgrass plant response rating (barnyardgrass; [3])	Plant response rating, Crabgrass, Large (crabgrass; Postemergence, 125 g ai/ha)	Crabgrass, Large plant response rating (crabgrass; [1])	Crabgrass, Large plant response rating (crabgrass; [2])	Crabgrass, Large plant response rating (crabgrass; [3])	Plant response rating, Foxtail, Giant (giant foxtail; Postemergence, 125 g ai/ha)	Foxtail, Giant plant response rating (giant foxtail; [1])	Foxtail, Giant plant response rating (giant foxtail; [2])	Foxtail, Giant plant response rating (giant foxtail; [3])	Plant response rating, Morningglory (morningglory; Postemergence, 125 g ai/ha)	Morningglory plant response rating (morningglory; [1])	Morningglory plant response rating (morningglory; [2])	Morningglory plant response rating (morningglory; [3])	Plant response rating, Pigweed (redroot pigweed; Postemergence, 125 g ai/ha)	Pigweed plant response rating (redroot pigweed; [1])	Pigweed plant response rating (redroot pigweed; [2])	Pigweed plant response rating (redroot pigweed; [3])	further results
CC(C)c1cc[n+]([O-])c(S(=O)(=O)Cc2c(C(F)(F)F)nn(C)c2OCC(F)(F)F)c1 [Compound 111, 4-(1-methylethyl)-2-[[[1-methyl-5-(2,2,2-trifluoroethoxy)-3-trifluoromethyl-1H-pyrazol-4-yl]methyl]sulfonyl]pyridine 1-oxide]	50	70	80	100	40	70	60	90	60	80	90	100	20	60	80	100	60	60	50	100	Plant response rating, Velvetleaf (velvetleaf; Postemergence, 125 g ai/ha): 50; Velvetleaf plant response rating (velvetleaf; [1]): 60; Velvetleaf plant response rating (velvetleaf; [2]): 60; Velvetleaf plant response rating (velvetleaf; [3]): 100; Plant response rating, Wheat (wheat; Postemergence, 125 g ai/ha): 50; Wheat plant response rating (wheat; [1]): 60; Wheat plant response rating (wheat; [2]): 50; Wheat plant response rating (wheat; [3]): 80; Plant response rating, Corn (corn; Postemergence, 125 g ai/ha): 0; Corn plant response rating (corn; [1]): 40; Corn plant response rating (corn; [2]): 0; Corn plant response rating (corn; [3]): 50
CCCc1cc[n+]([O-])c([S+]([O-])Cc2c(C(F)(F)F)nn(C)c2OCC(F)(F)F)c1 (centres unmarked) [Compound 114]	50	80	90	100	50	80	90	100	80	90	100	100	60	70	70	90	70	90	100	100	Plant response rating, Velvetleaf (velvetleaf; Postemergence, 125 g ai/ha): 50; Velvetleaf plant response rating (velvetleaf; [1]): 60; Velvetleaf plant response rating (velvetleaf; [2]): 60; Velvetleaf plant response rating (velvetleaf; [3]): 80; Plant response rating, Wheat (wheat; Postemergence, 125 g ai/ha): 50; Wheat plant response rating (wheat; [1]): 70; Wheat plant response rating (wheat; [2]): 60; Wheat plant response rating (wheat; [3]): 90; Plant response rating, Corn (corn; Postemergence, 125 g ai/ha): 60; Corn plant response rating (corn; [1]): 70; Corn plant response rating (corn; [2]): 30; Corn plant response rating (corn; [3]): 80
CCCc1cc[n+]([O-])c(S(=O)(=O)Cc2c(C(F)(F)F)nn(C)c2OCC(F)(F)F)c1 [Compound 115]	60	70	90	90	20	70	80	100	40	80	90	100	0	0	30	80	20	80	100	100	Plant response rating, Velvetleaf (velvetleaf; Postemergence, 125 g ai/ha): 0; Velvetleaf plant response rating (velvetleaf; [1]): 20; Velvetleaf plant response rating (velvetleaf; [2]): 20; Velvetleaf plant response rating (velvetleaf; [3]): 60; Plant response rating, Wheat (wheat; Postemergence, 125 g ai/ha): 30; Wheat plant response rating (wheat; [1]): 50; Wheat plant response rating (wheat; [2]): 20; Wheat plant response rating (wheat; [3]): 50; Plant response rating, Corn (corn; Postemergence, 125 g ai/ha): 0; Corn plant response rating (corn; [1]): 20; Corn plant response rating (corn; [2]): 30; Corn plant response rating (corn; [3]): 50
CCCc1cc[n+]([O-])c([S+]([O-])Cc2c(C(F)(F)F)nn(C)c2OC(F)F)c1 (centres unmarked) [Compound 116]	70	80	70	100	70	80	90	100	80	90	100	100	60	90	100	100	70	90	100	100	Plant response rating, Velvetleaf (velvetleaf; Postemergence, 125 g ai/ha): 50; Velvetleaf plant response rating (velvetleaf; [1]): 80; Velvetleaf plant response rating (velvetleaf; [2]): 0; Velvetleaf plant response rating (velvetleaf; [3]): 90; Plant response rating, Wheat (wheat; Postemergence, 125 g ai/ha): 50; Wheat plant response rating (wheat; [1]): 60; Wheat plant response rating (wheat; [2]): 50; Wheat plant response rating (wheat; [3]): 80; Plant response rating, Corn (corn; Postemergence, 125 g ai/ha): 60; Corn plant response rating (corn; [1]): 90; Corn plant response rating (corn; [2]): 60; Corn plant response rating (corn; [3]): 90
